Literature values as cited in publication PMC5698879 (Inorganic Chemistry, 2017).
Where two headings read alike, the source gives them in different places.

Conditions: [Cu^2+]tot = [chelator]tot = 50 μM

SMILES: O=C(O)CN(CCN(CC(=O)O)CC(=O)O)CCN(CC(=O)O)CC(=O)O [DTPA, diethylenetriaminepentacetic acid]
- Calculated pCu (−log [Cu]free) (pH 6.6): 9.7
- Calculated pCu (−log [Cu]free) (pH 7.4): 10.7
